Measured values as given in ChEMBL document CHEMBL3045723, “Synthesis of novel 3-(5-sulfanyl-1,3,4-oxadiazol-2-yl)-2H-chromen-2-one condensed s-triazinyl piperazines and piperidines as antimicrobial agents” (2012).
Converted amounts (≈) assume the structure as drawn.

Tests used:
Type in all cases: functional
Klebsiella pneumoniae [1] = assay: Antibacterial activity against Klebsiella pneumoniae MTCC 109 after 24 hr; details: MTCC 109, 24 h
Staphylococcus aureus [2] = assay: Antibacterial activity against Staphylococcus aureus MTCC 96 after 24 hr; details: MTCC 96, 24 h
Klebsiella pneumoniae [3] = assay: Antibacterial activity against Klebsiella pneumoniae MTCC 109 after 24 hr by agar disk diffusion test
Candida albicans [4] = assay: Antifungal activity against Candida albicans MTCC 183 after 48 hr; details: MTCC 183, 48 h
Aspergillus niger [5] = assay: Antifungal activity against Aspergillus niger MTCC 282 after 24 hr by agar disk diffusion test
Proteus vulgaris [6] = assay: Antibacterial activity against Proteus vulgaris MTCC 1771 after 24 hr; details: MTCC 1771, 24 h
Salmonella typhi [7] = assay: Antibacterial activity against Salmonella enterica subsp. enterica serovar Typhi MTCC 733 after 24 hr by agar disk diffusion test
Aspergillus niger [8] = assay: Antifungal activity against Aspergillus niger MTCC 282 after 48 hr; details: MTCC 282, 48 h
Shigella flexneri [9] = assay: Antibacterial activity against Shigella flexneri after 24 hr by agar disk diffusion test
Pseudomonas aeruginosa [10] = assay: Antibacterial activity against Pseudomonas aeruginosa MTCC 741 after 24 hr by agar disk diffusion test
Candida albicans [11] = assay: Antifungal activity against Candida albicans MTCC 183 after 24 hr by agar disk diffusion test
Escherichia coli [12] = assay: Antibacterial activity against Escherichia coli MTCC 739 after 24 hr by agar disk diffusion test
Proteus vulgaris [13] = assay: Antibacterial activity against Proteus vulgaris MTCC 1771 after 24 hr by agar disk diffusion test
Shigella flexneri [14] = assay: Antibacterial activity against Shigella flexneri after 24 hr
Escherichia coli [15] = assay: Antibacterial activity against Escherichia coli MTCC 739 after 24 hr; details: MTCC 739, 24 h
Salmonella typhi [16] = assay: Antibacterial activity against Salmonella enterica subsp. enterica serovar Typhi MTCC 733 after 24 hr; details: MTCC 733, 24 h
Bacillus cereus [17] = assay: Antibacterial activity against Bacillus cereus MTCC 619 after 24 hr; details: MTCC 619, 24 h
Staphylococcus aureus [18] = assay: Antibacterial activity against Staphylococcus aureus MTCC 96 after 24 hr by agar disk diffusion test
Bacillus cereus [19] = assay: Antibacterial activity against Bacillus cereus MTCC 619 after 24 hr by agar disk diffusion test
Pseudomonas aeruginosa [20] = assay: Antibacterial activity against Pseudomonas aeruginosa MTCC 741

Row | SMILES | MIC (Klebsiella pneumoniae [1]) [µg/mL] | MIC (Staphylococcus aureus [2]) [µg/mL] | inhibition zone (IZ) (Klebsiella pneumoniae [3]) [mm] | MIC (Candida albicans [4]) [µg/mL] | inhibition zone (IZ) (Aspergillus niger [5]) [mm] | MIC (Proteus vulgaris [6]) [µg/mL] | inhibition zone (IZ) (Salmonella typhi [7]) [mm] | MIC (Aspergillus niger [8]) [µg/mL] | inhibition zone (IZ) (Shigella flexneri [9]) [mm] | inhibition zone (IZ) (Pseudomonas aeruginosa [10]) [mm] | inhibition zone (IZ) (Candida albicans [11]) [mm] | inhibition zone (IZ) (Escherichia coli [12]) [mm] | inhibition zone (IZ) (Proteus vulgaris [13]) [mm] | MIC (Shigella flexneri [14]) [µg/mL] | MIC (Escherichia coli [15]) [µg/mL] | MIC (Salmonella typhi [16]) [µg/mL] | MIC (Bacillus cereus [17]) [µg/mL] | inhibition zone (IZ) (Staphylococcus aureus [18]) [mm] | inhibition zone (IZ) (Bacillus cereus [19]) [mm] | MIC (Pseudomonas aeruginosa [20]) [µg/mL]
1 | O=c1oc2ccccc2cc1-c1nnc(Sc2nc(Oc3cccc4cccnc34)nc(N3CCN(C(c4ccccc4)c4ccccc4)CC3)n2)o1 | 100 (≈ 139 µM) | 100 (≈ 139 µM) | 14 | 100 (≈ 139 µM) | 11 | 100 (≈ 139 µM) | 12 | 100 (≈ 139 µM) | 14 | <10 | <10 | 13 | <10 | 100 (≈ 139 µM) | 100 (≈ 139 µM) | 100 (≈ 139 µM) | 100 (≈ 139 µM) | 18 | 14 | 100 (≈ 139 µM)
2 | O=c1oc2ccccc2cc1-c1nnc(Sc2nc(Oc3cccc4cccnc34)nc(N3CCN(c4cccc(Cl)c4Cl)CC3)n2)o1 | 25 (≈ 35.8 µM) | 50 (≈ 71.7 µM) | 21 | 50 (≈ 71.7 µM) | 23 | 100 (≈ 143 µM) | 19 | 25 (≈ 35.8 µM) | 21 | 20 | 21 | 24 | 17 | 100 (≈ 143 µM) | 25 (≈ 35.8 µM) | 100 (≈ 143 µM) | 25 (≈ 35.8 µM) | 21 | 22 | 50 (≈ 71.7 µM)
3 | O=c1oc2ccccc2cc1-c1nnc(Sc2nc(Oc3cccc4cccnc34)nc(N3CCN(c4ccccc4)CC3)n2)o1 | 100 (≈ 159 µM) | 100 (≈ 159 µM) | 11 | 100 (≈ 159 µM) | <10 | 100 (≈ 159 µM) | <10 | 100 (≈ 159 µM) | <10 | 13 | <10 | <10 | 15 | 100 (≈ 159 µM) | 100 (≈ 159 µM) | 100 (≈ 159 µM) | 100 (≈ 159 µM) | <10 | 12 | 100 (≈ 159 µM)
4 | CC1CC(C)CN(c2nc(Oc3cccc4cccnc34)nc(Sc3nnc(-c4cc5ccccc5oc4=O)o3)n2)C1 (stereo not given) | 100 (≈ 173 µM) | 25 (≈ 43.1 µM) | 16 | 100 (≈ 173 µM) | 23 | 100 (≈ 173 µM) | 23 | 25 (≈ 43.1 µM) | 24 | 22 | 16 | 20 | 19 | 25 (≈ 43.1 µM) | 50 (≈ 86.3 µM) | 12.5 (≈ 21.6 µM) | 50 (≈ 86.3 µM) | 22 | 21 | 12.5 (≈ 21.6 µM)
5 | O=c1oc2ccccc2cc1-c1nnc(Sc2nc(Oc3cccc4cccnc34)nc(N3CCN(c4cccc(Cl)c4)CC3)n2)o1 | 100 (≈ 151 µM) | 100 (≈ 151 µM) | 15 | 50 (≈ 75.4 µM) | 20 | 100 (≈ 151 µM) | 17 | 100 (≈ 151 µM) | 19 | 14 | 20 | 25 | 19 | 100 (≈ 151 µM) | 25 (≈ 37.7 µM) | 100 (≈ 151 µM) | 100 (≈ 151 µM) | 17 | 17 | 100 (≈ 151 µM)
6 | CC(=O)N1CCN(c2nc(Oc3cccc4cccnc34)nc(Sc3nnc(-c4cc5ccccc5oc4=O)o3)n2)CC1 | 100 (≈ 168 µM) | 50 (≈ 84.1 µM) | 13 | 100 (≈ 168 µM) | 16 | 100 (≈ 168 µM) | 22 | 100 (≈ 168 µM) | 23 | 23 | 13 | 15 | 18 | 25 (≈ 42 µM) | 100 (≈ 168 µM) | 12.5 (≈ 21 µM) | 25 (≈ 42 µM) | 20 | 22 | 12.5 (≈ 21 µM)
7 | CCN1CCN(c2nc(Oc3cccc4cccnc34)nc(Sc3nnc(-c4cc5ccccc5oc4=O)o3)n2)CC1 | 100 (≈ 172 µM) | 100 (≈ 172 µM) | 14 | 100 (≈ 172 µM) | <10 | 100 (≈ 172 µM) | 16 | 100 (≈ 172 µM) | 20 | 18 | 13 | 16 | 12 | 100 (≈ 172 µM) | 100 (≈ 172 µM) | 100 (≈ 172 µM) | 100 (≈ 172 µM) | 15 | 13 | 100 (≈ 172 µM)
8 | O=c1oc2ccccc2cc1-c1nnc(Sc2nc(Oc3cccc4cccnc34)nc(N3CCOCC3)n2)o1 | 25 (≈ 45.2 µM) | 100 (≈ 181 µM) | 22 | 100 (≈ 181 µM) | 12 | 100 (≈ 181 µM) | 16 | 100 (≈ 181 µM) | 11 | 16 | <10 | <10 | <10 | 100 (≈ 181 µM) | 100 (≈ 181 µM) | 100 (≈ 181 µM) | 100 (≈ 181 µM) | 14 | 15 | 100 (≈ 181 µM)
9 | O=c1oc2ccccc2cc1-c1nnc(Sc2nc(Oc3cccc4cccnc34)nc(N3CCN(c4ncccn4)CC3)n2)o1 | 25 (≈ 39.6 µM) | 50 (≈ 79.3 µM) | 22 | 100 (≈ 159 µM) | 16 | 100 (≈ 159 µM) | 18 | 100 (≈ 159 µM) | 22 | 18 | 17 | 19 | 16 | 50 (≈ 79.3 µM) | 100 (≈ 159 µM) | 100 (≈ 159 µM) | 25 (≈ 39.6 µM) | 21 | 22 | 100 (≈ 159 µM)
10 | CN1CCN(c2nc(Oc3cccc4cccnc34)nc(Sc3nnc(-c4cc5ccccc5oc4=O)o3)n2)CC1 | 100 (≈ 176 µM) | 100 (≈ 176 µM) | 12 | 100 (≈ 176 µM) | <10 | 100 (≈ 176 µM) | 16 | 100 (≈ 176 µM) | 18 | 19 | 11 | 12 | 11 | 100 (≈ 176 µM) | 100 (≈ 176 µM) | 100 (≈ 176 µM) | 100 (≈ 176 µM) | 13 | <10 | 100 (≈ 176 µM)
11 | O=c1oc2ccccc2cc1-c1nnc(Sc2nc(Oc3cccc4cccnc34)nc(N3CCN(c4ccccn4)CC3)n2)o1 | 25 (≈ 39.7 µM) | 50 (≈ 79.4 µM) | 22 | 100 (≈ 159 µM) | 14 | 100 (≈ 159 µM) | 14 | 100 (≈ 159 µM) | 22 | 18 | 17 | 15 | 14 | 50 (≈ 79.4 µM) | 100 (≈ 159 µM) | 100 (≈ 159 µM) | 50 (≈ 79.4 µM) | 21 | 21 | 100 (≈ 159 µM)
12 | O=c1oc2ccccc2cc1-c1nnc(Sc2nc(Oc3cccc4cccnc34)nc(N3CCN(C(c4ccccc4)c4ccc(Cl)cc4)CC3)n2)o1 (stereo not given) | 100 (≈ 133 µM) | 50 (≈ 66.4 µM) | 19 | 50 (≈ 66.4 µM) | 22 | 100 (≈ 133 µM) | 19 | 50 (≈ 66.4 µM) | 16 | 16 | 22 | 25 | 20 | 100 (≈ 133 µM) | 25 (≈ 33.2 µM) | 100 (≈ 133 µM) | 50 (≈ 66.4 µM) | 20 | 21 | 100 (≈ 133 µM)
